1 compound from article PMC12670426 (Journal of Medicinal Chemistry, 2025) can be followed below.

Read-outs that look alike come from different tables or passages of the source.

In data set [1] the target is T1, human galectin-1 (Gal-1, full length) (Homo sapiens, UniProt P09382).
T1 construct: Gal-1 is a prototype galectin consisting of a single CRD and was used in full length; 6xHis tag with TEV protease site (N, cleaved yes); made in house; host or cells: BL21 Escherichia coli (pET-15b)
The data set is described as follows: Competitive fluorescence polarization assay, Gal-1. Type of data set: binding. Summed up: (§1)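 Competitive fluorescence polarization (anisotropy) with a fluorescent probe; full-length Gal-1 and C-terminal CRD construct of Gal-3. Read after 30–60 min incubation at 25 °C. Kd fitted with Wang's exact cubic competitive model, rmin/rmax fixed from direct binding.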
In general terms: Fluorescence polarisation rises when a labelled molecule tumbles more slowly, as on binding a larger partner.

For data set [2], the target named is T2, human galectin-3C (Gal-3C, C-terminal CRD of galectin-3) (Homo sapiens, UniProt P17931).
T2 construct: only the C-terminal domain was used (Gal-3C); 6xHis tag with TEV protease site (N, cleaved yes); made in house; host or cells: BL21 Escherichia coli (pET-15b)
The data set is described as follows: Competitive fluorescence polarization assay, Gal-3C. Type of data set: binding. The procedure, abridged:
as §1

Data set [3] in a line: Plasma stability assay, human plasma. It counts as in vitro ADME. To be noted: pooled plasma, 37 °C. Here is the method:
(§2) Test compounds (10 μM) were incubated with mouse, rat, or human pooled plasma from 50 donors (Biowest) at 37 °C for 20, 60, and 120 min. Reactions were terminated by adding four volumes of ice-cold methanol, followed by vigorous mixing. Samples were kept at −20 °C for 30 min and then stored at 4 °C overnight. The next day, samples were centrifuged, and supernatants were diluted with four volumes of 30% methanol in water. Zero time points were prepared by adding ice-cold methanol to the compound prior to the addition of plasma. Samples were then analyzed on an Echo MS system (SCIEX) using multiple reaction monitoring (MRM). The only exception was compound 3af, which was analyzed by LC–MS/MS (SCIEX 6500 triple quadrupole) due to its weak ionization in Echo-MS.

Data set [4] in a line: Plasma stability assay, mouse plasma. To be noted: 37 °C. Type of data set: in vitro ADME. Here is the method: as §2
Data set [5] in a line: Plasma protein binding assay (rapid equilibrium dialysis), rat plasma. It counts as in vitro ADME. To be noted: fraction bound, read-out: plasma protein binding Fb rat (converted). Here is the method: (§3) Test compound (10 μM) was incubated at 37 °C for 4 h with mouse, rat, or human plasma (Biowest) in the donor well of a rapid equilibrium dialysis plate (Thermo Fisher Scientific). PBS was placed in the acceptor well. To stop the assay, samples were collected from both wells, and an equal volume of plasma was added to the PBS sample, and vice versa. Proteins were then precipitated by adding three volumes of ice-cold methanol. Samples were mixed gently, kept at −20 °C for 30 min, and then stored at 4 °C overnight. The next day, the samples were centrifuged, and the supernatants were diluted with four volumes of 30% methanol in water. The samples were then analyzed using the Echo-MS system (SCIEX) with MRM transition monitoring, except for compound 3af, which was analyzed by LC–MS/MS as described in the plasma stability assay.

Data set [6] in a line: Plasma protein binding, summary across species. Type of data set: in vitro ADME. Particulars: summary across human, mouse and rat plasma. Here is the method:
as §3

Data set [7] deals with TGFβ-stimulated LX2 hepatic stellate cells. As to the kind of experiment: Antifibrotic efficacy: profibrotic gene expression in TGFβ-stimulated LX2 hepatic stellate cells (RT-qPCR). It counts as cell-based, human. To be noted: TGFβ-stimulated LX2, 48 h, RT-qPCR normalized to ACTB. As to the method:
LX2 cells were then stimulated with transforming growth factor-β1 (TGFβ1; PeproTech, Thermo Fisher Scientific) at 5 ng/mL to induce profibrotic signaling. […] After 48 h of treatment, cells were harvested into 100 μL RA1 buffer, and total RNA was then isolated using the NucleoSpin 96 RNA Kit (Macherey-Nagel, Düren, Germany) and reverse-transcribed into cDNA using the LunaScript RT SuperMix Kit (New England Biolabs, Ipswich, MA, USA). Quantitative real-time PCR (RT-qPCR) was used to determine mRNA expression levels of selected profibrotic markers: αSMA (ACTA2), collagen α-2(I) chain (COL1A2), and fibronectin 1 (FN1), and the housekeeping gene β-actin (ACTB). Amplification was carried out using Luna Universal qPCR Master Mix (New England Biolabs) and primer pairs for individual genes as follows: ACTA2: forward primer: [NT], reverse primer: [NT]; COL1A2: forward primer: [NT], reverse primer: [NT]; FN1: forward primer: [NT], reverse primer: [NT]; ACTB: forward primer: [NT], reverse primer: [NT] (Eurofins Genomics). Data were normalized to ACTB expression and analyzed using the ΔΔCt method.

T2 sequence (P17931 118-248 limits assumed): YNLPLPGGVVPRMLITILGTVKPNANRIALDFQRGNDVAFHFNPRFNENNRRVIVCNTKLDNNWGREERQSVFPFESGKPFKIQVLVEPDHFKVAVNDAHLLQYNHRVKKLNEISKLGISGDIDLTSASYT
T1 sequence (P09382 2-135): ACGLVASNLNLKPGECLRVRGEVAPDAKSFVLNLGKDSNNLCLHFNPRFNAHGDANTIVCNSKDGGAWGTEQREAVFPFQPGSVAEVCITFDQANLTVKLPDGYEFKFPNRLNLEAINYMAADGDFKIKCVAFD

Regarding `CC(=O)N(c1cc(C(=O)O)cc2[nH]ccc12)[C@@H]1O[C@H](CO)[C@@H](S[C@@H]2O[C@H](CO)[C@H](O)[C@H](n3cc(-c4cccc(F)c4)nn3)[C@H]2O)[C@H](O)[C@H]1O` [Compound 11, N-[4-S-(3-Deoxy-3-(4-(3-fluorophenyl)-1H-1,2,3-triazol-1-yl)-β-D-galactopyranosyl)-4-thio-β-D-glucopyranosyl]-N-(6-carboxy-1H-indol-4-yl)acetamide], the IC50 was found to be 4340 nM in data set [1] (CSV supplement, unrounded mean, read-out: Gal1_IC50_mean_uM); 4300 ± 200 nM in data set [1] (four-parameter logistic model, mean ± SD, read-out: IC50 Gal-1); 57.7 nM in data set [2] (CSV supplement, unrounded mean, read-out: Gal3C_IC50_mean_uM); 58 ± 10 nM in data set [2] (four-parameter logistic model, mean ± SD, read-out: IC50 Gal-3C). The Kd was 2180 nM in data set [1] (CSV supplement, unrounded mean, read-out: Gal1_Kd_mean_uM); 2200 ± 300 nM in data set [1] (competitive fluorescence polarization, mean ± SD, read-out: Kd Gal-1); 5.71 nM in data set [2] (CSV supplement, unrounded mean, read-out: Gal3C_Kd_mean_uM); 5.7 ± 2 nM in data set [2] (competitive fluorescence polarization, mean ± SD, read-out: Kd Gal-3C). Moreover, the fraction remaining at 2 h, 10 μM in data set [3] was found to be 110 ± 6%; in data set [4], 100 ± 3%. The values for the fraction unbound at 4 h, 10 μM in data set [5] and in data set [6] were 0.1 and 0.1 to 0.78, respectively. In data set [7], the “ACTA2 mRNA expression” value is recorded as “dose-dependent downregulation”. In addition, in data set [7], the “COL1A2 mRNA expression” value is “dose-dependent downregulation”. Moreover, the “FN1 mRNA expression” value in data set [7] is given as “dose-dependent downregulation”.
